Where two headings read alike, the source gives them in different places.
What was measured:
MCF-7 cells = assay: MTT cytotoxicity, breast cancer cells MCF-7; format: cell-based, human; conditions: MTT
In short: (§1)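 Viability was quantified by MTT reduction following 48 and/or 72 h compound exposure at four concentrations (0.1, 1, 5, 10 μM). Values are percentages of DMSO-treated controls, with IC50 fitted from dose-response data.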

MDA-MB-231 cells = assay: MTT cytotoxicity, breast cancer cells MDA-MB-231; format: cell-based, human; conditions: MTT, no * mark (incubation time not given)
In short: as §1

A549 cells = assay: MTT cytotoxicity, lung cancer cells A549; format: cell-based, human
In short: as §1

CAKI-1 cells = assay: MTT cytotoxicity, kidney cancer cells CAKI-1; format: cell-based, human
In short: as §1

A498 cells [1] = assay: MTT cytotoxicity, kidney cancer cells A498; format: cell-based, human; conditions: for IC50: MTT
In short: as §1

MCF-10F/Beas2b cells = assay: MTT cytotoxicity, healthy cells MCF-10F/Beas2b; format: cell-based, human; conditions: for Selectivite Index, MCF-10F/Beas2b (Table 2): MCF-10F/Beas2b vs colon or pancreas cancer cells
In short: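 Following seeding and next-day dosing at 0.1, 1, 5 and 10 μM, plates incubate 48 and/or 72 h. MTT is then applied for 4 h and dissolved crystals measured at 570 nm (630 nm reference); cell-free compound+MTT wells control for interference, and IC50 is calculated per compound.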

HUVEC cells = assay: MTT cytotoxicity, healthy cells HUVEC; format: cell-based, human; conditions: for IC50: MTT; for Selectivite Index, HUVEC (Table 2): HUVEC vs colon or pancreas cancer cells
In short: as §1

HT-29 cells = assay: MTT cytotoxicity, colon cancer cells HT-29; format: cell-based, human; conditions: for IC50: MTT
In short: (§2)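 Cells were seeded at 5000 per well and treated next day with compound at 0.1, 1, 5 and 10 μM (final) for 48 and/or 72 h, with matched DMSO controls. MTT was added for 4 h and formazan was dissolved in DMSO and read at 570/630 nm. % viability against control gave IC50 from dose-response curves.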

HCT-116 cells = assay: MTT cytotoxicity, colon cancer cells HCT-116; format: cell-based, human
In short: as §2

MIAPaCa-2 cells [2] = assay: MTT cytotoxicity, pancreas cancer cells MIAPaCa-2; format: cell-based, human
In short: as §2

[3] = system: general tyrosine kinase activity in A498 kidney cancer cells; assay: General tyrosine kinase activity (ELISA) in A498 cells; format: cell-based, human; conditions: 72 h, IC50 concentration
Description: (§3) Takara Universal Tyrosine Kinase Assay Kit is used to determine the effects of 11 2-indolinone compounds (Y1, Y2, Y3, Y4, Y5, Y8, […], […], Y21, Y23, 20C, 22C) on general tyrosine kinase activity in cancer cells. Cells are seeded in 6-well plates (4.10^5 cells/well) and the IC50 concentration of each selected molecule is performed to the cells for 48 or 72 hours. Cells in the control group are incubated with medium only. At the end of the incubation period, the cells in each well are washed with PBS and cells are removed from the wells using a cell scraper via 1 ml of the extraction buffer in the kit. The cell lysate is transferred to ependorf tubes and centrifuged at 10.000 g for 10 minutes at +4° C. and the supernatant is used as a sample for activity determination. After the extracts obtained from the control and experimental groups are diluted 1:25, 40 μl extracts is transferred to two wells in the 96-well plate in the kit. In addition, the standard solution in the kit is diluted according to the kit instructions and each concentration is transferred 40 μl into three wells. 10 μl of 40 mM ATP-2Na solution is added to all wells and the plate is incubated at 37° C. for 30 minutes. […] The reaction is finished by adding 100 μl of stop solution to each well and the optical density in each well is measured at 405 nm with a microplate reader (BioTek, USA). The tyrosine kinase activity in each sample is calculated from the standard curve obtained from the absorbance values of the standard solutions with the kit (Chan W Y, Lau P M, Yeung K W, Kong S K. The second generation tyrosine kinase inhibitor dasatinib induced eryptosis in human erythrocytes—An in vitro study. Toxicol Lett. 2018; 295:10-21). […]
The effects of 11 2-indolinone compounds (Y1, Y2, Y3, Y4, Y5, Y8, Y14, Y21, Y23, 20C and 22C) having the structure of formula (5), which are prominent with their cytotoxicity in A498, MIAPaCa-2 and HCT-116 cancer cell lines and nontoxic properties in healthy cells, on general tyrosine kinase activity in cancer cells are determined.

[4] = system: general tyrosine kinase activity in HCT116 colon cancer cells; assay: General tyrosine kinase activity (ELISA) in HCT-116 cells; format: cell-based, human; conditions: 72 hours, IC50 concentration
Description: as §3, with “determination.” for “determination. After the extracts obtained from the control and experimental groups are diluted 1:25, 40 μl extracts is transferred to two wells in the 96-well plate in the kit. In addition, the standard solution in the kit is diluted according to the kit instructions and each concentration is transferred 40 μl into three wells. 10 μl of 40 mM ATP-2Na solution is added to all wells and the plate is incubated at 37° C. for 30 minutes.”

human cancer cells = assay: MTT cell viability, human cancer cells overall; format: cell-based; conditions: cell line as discussed at the place
Text: The cytotoxicity, general tyrosine kinase inhibitory effects and cell death (apoptosis/necrosis) assays of 1-benzyl-3-(1H-indol-3-ylmethylidene)-1,3-dihydro-2H-indol-2-one derivatives (Formula 5) of the present invention are studied by the following methods. […] HUVEC (human umbilical vein endothelial cell), MCF-10F (human breast epithelial cell) and Beas2b (human lung bronchial epithelial cell) cell lines have been used as healthy control cells in MTT experiments.
Beas2b (human lung bronchiole epithelial cell) and HEK293 (renal tubule epithelium) cells used as normal cell lines were cultured in RPMI medium, and HUVEC (human umbilical cord endothelial cells) and MCF-10F (human breast epithelial cell) cells are cultured in DMEM medium containing 100 µg/ml penicillin/streptomycin. The cells, which covered 70% of the culture flask, are washed with phosphate buffer and then removed from the surface of the flask by application of trypsin-ethylenediamine tetraacetic acid (Trypsin-EDTA; 0.25%) solution, passaged, counted and seeded on appropriate plates before each experiment. Cells are treated with a total of 45 2-indolinone compounds (5) at concentrations of 0.1, 1, 5 and 10 μM. Stock compounds are prepared in 1 ml dimethylsulfoxide (DMSO) and 4 different dilutions were prepared with medium and performed to the cells. Control group cells are treated with DMSO at a similar concentration to the experimental groups.
MTT (3-(4,5-dimethylthiazol-2-yl)-2,5-diphenyl-2H-tetrazolium bromide) colorimetric assay provides quantitation of viable cells with ongoing mitochondrial activity in culture medium. According to the standard procedure in cell culture conditions, cells are maintained in RPMI-1640 and DMEM culture media containing 10% FBS and 1% penicillin/streptomycin. The trypan blue test is used for cell counts.
The effects of 45 2-indolinone compounds (5) on cell viability in all cancer cell lines are investigated by MTT assay. Cells are seeded in a 96-well flat bottom plate with 5000 cells in each well and 2-indolinone compounds (5) at concentrations of 0.1, 1, 5 and 10 μM are performed to the cells the next day. After 48 and/or 72 hours following treatment with 2-indolinone compounds, 50 μl of the supernatant is slowly discarded (as it was acid medium) and MTT at a concentration of 5 mg/ml is added to each well in a volume of 10 μl. After incubation for 4 hours, the formazan crystals formed in the wells are dissolved by adding 100 μl DMSO and the optical density is read at 570 nm test wavelength and 630 nm reference wavelength. Cell viability is expressed as % cell viability by comparing the absorbance of control and test wells. IC50 value is calculated from the dose-response curves prepared for each compound. In addition, the possible DMSO effect is eliminated by preparing negative control wells compatible with the amount of DMSO contained in the compounds. To understand the reaction of the compounds with MTT, cell-free (MTT+compounds) negative controls are prepared at the concentrations used (Mosmann, 1983). […] The absorbance values obtained are compared to the control and statistically evaluated by unpaired t-test using “Graphpad Prism 5.04” software. “P<0.05” is accepted as significant. When evaluating cytotoxic effects, the present inventors aim for the inventive compounds to be effective in cancer cells and ineffective in healthy cells. […]

A498 cells [5] = assay: Apoptosis/necrosis detection, Annexin V/PI flow cytometry, A498; format: cell-based, human; conditions: A498
Description: (§4) After incubation with 2-indolinone compounds (IC50 μM concentration; 48 and/or 72 hours), cells are washed twice with PBS and the cell pellet is suspended in Annexin V binding buffer. After this incubation, cells are incubated with FITC-conjugated Annexin V and propidium iodine staining solution for 15 minutes in the dark and at room temperature. Then, cells are analyzed by flow cytometry (Beckman coulter, Navios) (Wlodkowic, D., Skommer, J, Darzynkiewicz, Z. 2009. Flow cytometry-based apoptosis detection, Methods Mol Biol., 559, 1-14).

MIAPaCa-2 cells [6] = assay: Apoptosis/necrosis detection, Annexin V/PI flow cytometry, MiaPaca-2; format: cell-based, human
Description: as §4

[7] = no * mark (incubation time not specified)
[8] = read-out: IC50, MDA-MB-231 (breast)
[9] = MTT, no * mark (incubation time not specified)
[10] = *: effective 72 hours after incubation

Row | Compound | IC50 (MCF-7 cells; [7]) [µM] | IC50 (MDA-MB-231 cells; [8]) [µM] | IC50 (A549 cells; [7]) [µM] | IC50 (CAKI-1 cells; [7]) [µM] | IC50 (A498 cells [1]; [7]) [µM] | IC50 (HUVEC cells; [7]) [µM] | IC50 (HT-29 cells; [7]) [µM] | IC50 (HCT-116 cells; [7]) [µM] | IC50 (MIAPaCa-2 cells [2]; [9]) [µM] | Selectivite Index, MCF-10F/Beas2b (Table 2) (MCF-10F/Beas2b cells; cancer line not given) | Selectivite Index, HUVEC (Table 2) (HUVEC cells; cancer line not given) | other results
1 | Cn1cc(/C=C2\C(=O)N(Cc3ccccc3)c3ccc(Cl)cc32)c2ccccc21 [Y23] | 4.9 | 4.72 | > 10 | 4.98 | 0.89 | 4.18 | 4.18 | 1.62 | > 10 |  |  | selectivity index (A498 cells [1]; MCF-10F/Beas2b vs A498): > 11; Selectivite Index (SI), MCF-10F/Beas2b (Table 1) (MCF-10F/Beas2b cells; MCF-10F/Beas2b vs breast or kidney cancer cells, cancer line not given): > 11.23; Selectivite Index (SI), HUVEC (Table 1) (HUVEC cells; HUVEC vs breast or kidney cancer cells, cancer line not given): 4.70; general tyrosine kinase activity compared to control [3]: did not cause a significant change
2 | Cc1cccc(CN2C(=O)/C(=C\c3c[nH]c4ccccc34)c3cc(Cl)ccc32)c1 [20C] | > 10 | > 10 | 4.04 |  |  | 1.52 | 1.16 | 0.27 | 1.39 | 13.63 | 5.63 | IC50 (CAKI-1 cells; [10]): 6.19 µM; IC50 (A498 cells [1]; [10]): 0.97 µM; IC50 (MCF-10F/Beas2b cells; MTT, *: effective 72 hours after incubation): 3.68 µM; tyrosine kinase activity compared to control [4]: did not cause a significant change
3 | O=C1/C(=C\c2c[nH]c3ccccc23)c2ccccc2N1Cc1cccc(F)c1 [51C] | > 10 | > 10 | > 10 | > 10 | 6.22 | 5.7 | 0.93 | 1.13 | 5.2 | > 10.75 | 6.13 | selectivity index (HT-29 cells; MCF-10F/Beas2b vs HT-29): > 11; potency/selectivity compared with sunitinib malate (human cancer cells): more potent and selective than Sunitinib malate
4 | CCN(CC)CCNC(=O)c1c(C)[nH]c(/C=C2\C(=O)Nc3ccc(F)cc32)c1C [Sunitinib malate, reference compound] |  |  |  |  | 3.71 |  |  |  | 1.18 |  |  | IC50 (MCF-7 cells; Homo sapiens, MCF7, no * mark (incubation time not given)): 9.78 µM; IC50 (MDA-MB-231 cells; Homo sapiens, MDA-MB-231, read-out: IC50, MDA-MB-231 (breast)): > 10 µM; IC50 (A549 cells; Homo sapiens, A549, no * mark (incubation time not given)): > 10 µM; IC50 (CAKI-1 cells; Homo sapiens, CAKI-1, no * mark (incubation time not given)): 5.13 µM; IC50 (A498 cells [1]; Homo sapiens, A498, 72 h, *: effective 72 hours after incubation): 3.46 µM; IC50 (A498 cells [1]; no * mark (incubation time not specified), listed as sunitinib malate): > 10 µM; IC50 (HUVEC cells; Homo sapiens, HUVEC, no * mark (incubation time not given)): 2.94 µM; IC50 (HT-29 cells; Homo sapiens, HT-29, no * mark (incubation time not given)): 2.94 µM; IC50 (HCT-116 cells; Homo sapiens, HCT-116, no * mark (incubation time not given)): 1.78 µM; IC50 (MIAPaCa-2 cells [2]; Homo sapiens, MIA PaCa-2, 72 h, MTT, *: effective 72 hours after incubation): 4.03 µM; IC50 (MIAPaCa-2 cells [2]; Homo sapiens, MIA PaCa-2, MTT, no * mark (incubation time not given)): 0.61 µM; necrosis compared to control (A498 cells [5]): no increase or decrease; viability, early apoptosis and late apoptosis compared to control (A498 cells [5]; Y3 at IC50, sunitinib malate 10 μM): 10 μM dose is found to be the most significant; necrosis compared to control (MIAPaCa-2 cells [6]; MiaPaca-2): did not cause necrosis; apoptosis (early and late) compared to control (MIAPaCa-2 cells [6]; MiaPaca-2, IC50 values): increase in apoptosis at IC50 values was statistically significant

Source: patent US20260335282A1, “NOVEL 3-ARYLIDENE-2-INDOLINONE DERIVATIVES FOR THERAPEUTIC USE” (ISTANBUL UNIVERSITESI REKTORLUGU, priority 2022, published 2026)
